Measurements from patent US20260355199A1, “COMPOSITIONS AND METHODS FOR TREATING OR PREVENTING NONALCOHOLIC STEATOHEPATITIS (NASH), ANOREXIA, DEPRESSION, ENDOMETRIOSIS, AND OTHER DISEASES OR DISORDERS” (priority 2022, published 2026).

Columns and labels:
THP-1 cells = assay: TUNEL assay in THP-1 cells; format: cell-based, human; details: THP-1, 10 μM, 48 h
Method: For TET3 expression restoration experiments, cells seeded in 24-well plates were infected with Ad-GFP or Ad-TET3 at 4000 gc/cell. Following 16 h of infection, vehicle or Bobcat339 were added at a final concentration of 10 μM. Protein and RNA were isolated 48 hours later and analyzed.
These were performed using the In Situ Cell Death Detection Kit (Sigma Aldrich, 12156792910). Briefly, cells were fixed with 4% paraformaldehyde in PBS for 1 h at RT and rinsed with PBS, followed by permeabilization with 0.1% Triton X-100 in 0.1% sodium citrate for 2 min on ice. TUNEL reaction mixture was added and incubation was carried out at 37 °C for 60 min. DAPI was added to counter-stain the cells for 1 min. The slides were coverslipped and scoped using a Keyence BZ-X700 fluorescence microscope.

Agrp promoter = assay: ChIP-qPCR at the Agrp promoter in mouse ARC; format: in vivo; details: leptin 5 mg/kg
Method: To prepare antibodies, 5 μl (packed volume) of ChIP grade Dynabeads Protein G (Invitrogen, Thermo Scientific, 10004D) were washed twice with 1 ml of binding buffer (0.2% Tween-20 in PBS), followed by incubation on a rotator with 10 μg of rabbit polyclonal anti-TET3 (Active Motif, 61395) (FIG. 12A), anti-STAT3 (Proteintech, 10253-2-AP), anti-NCOR1 (Cell Signaling, 5948S) (Hainberger et al., 2020, Front Immunol., 11:579), anti-HDAC4 (Active Motif, 40969) (FIG. 12B), anti-H3K9ac (Active Motif, 39137) (validated by the vendor), or preimmune rabbit IgG (as a negative control) in 350 μl of binding buffer at 4 °C overnight (Gao, Y. et al., 2020, Advanced Science, 7:2002518; Hainberger, D. et al., 2020, Frontiers in Immunology, 11:579). Antibody bound beads were washed twice with 1 ml of binding buffer, resuspended in 50 μl of dilution buffer (0.01% SDS, 1.1% Triton X-100, 1.2 mM EDTA, 16.7 mM Tris-HCl at PH 8.0, 167 mM NaCl), and kept on ice until use. To prepare chromatin, freshly isolated ARCs (2 ARCs from one mouse per ChIP, FIG. 6D and FIG. 6I) were washed twice with 1 ml of cold-PBS, followed by cross-linking in 1% paraformaldehyde/PBS on a rotator at room temperature for 15 min. Glycine buffer (150 mM final concentration) was added and incubated in rotation at room temperature for 10 min to quench cross-linking. Cross-linked ARCs were washed twice with PBS and homogenized (5-10 strokes) using a disposable pellet pestle (Fisher Scientific, 12-141-368) in 300 μl of cold cell lysis buffer (50 mM Tris-HCl at PH 8.0, 140 mM NaCl, 1 mM EDTA, 10% glycerol, 0.5% NP-40, 0.25% Triton X-100), followed by incubation at 4 °C for 20 min to lyse the plasma membrane. […]

Molecule	apoptosis (TUNEL) (THP-1 cells)	histone acetylation (H3K9ac) at the Agrp promoter (Agrp promoter)	binding of STAT3, TET3, NCOR1, and HDAC4 to the Agrp promoter (Agrp promoter; AAV-sgTet3 mice)	binding of STAT3, TET3, NCOR1, and HDAC4 to the Agrp promoter (Agrp promoter; control mice)
Nc1nc(=O)n(-c2cccc(-c3ccccc3)c2)cc1Cl [Bobcat339, 4-Amino-1-[1,1′-biphenyl]-3-yl-5-chloro-2(1H)-pyrimidinone]	a significant increase in apoptotic cell death			
leptin: adipose hormone; mouse leptin L3772-1MG or human leptin L4146-1MG, Sigma Aldrich		reduction was observed in histone acetylation at the Agrp promoter	failed to do so in AAV-sgTet3 injected mice	increased binding of STAT3, TET3, NCOR1, and HDAC4 to the Agrp promoter
